In PubChem BioAssay (NCI):
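96-well plates; 48 h exposure; 5 concentrations. Endpoints by linear interpolation between flanking doses. Not reached: highest tested concentration assigned. GI50: concentration for 50% inhibition of growth. TGI marks complete inhibition of growth.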

Legend:
Assay in all cases: NCI tumour cell line growth inhibition, 48 h
[1] = test system: EKVX NSCLC
[2] = test system: KM12 colon
[3] = test system: COLO 205 colon
[4] = test system: SF-295 CNS
[5] = test system: MCF7 breast
[6] = test system: NCI-H460 lung
[7] = test system: CAKI-1 renal
[8] = test system: MDA-MB-435
[9] = test system: LOX IMVI melanoma
[10] = test system: SW-620 colon

Row | Structure (SMILES) | GI50 [1] | TGI [1] | GI50 [2] | TGI [2] | GI50 [3] | TGI [3] | GI50 [4] | TGI [4] | GI50 [5] | TGI [5] | GI50 [6] | TGI [6] | GI50 [7] | TGI [7] | GI50 [8] | TGI [8] | GI50 [9] | TGI [9] | GI50 [10] | TGI [10]
1 | C[C@H]1O[C@@H](O[C@H]2[C@@H](O)C[C@H](O[C@H]3[C@@H](O)C[C@H](O[C@H]4CC[C@]5(C)C6C[C@@H](O)[C@]7(C)[C@@H](C8=CC(=O)OC8)CC[C@]7(O)C6CC[C@@H]5C4)O[C@@H]3C)O[C@@H]2C)C[C@H](O)[C@@H]1O (some centres undefined) | 0.0377 µM | 0.124 µM | 0.144 µM | 0.544 µM | 0.146 µM | 0.374 µM | 0.0595 µM | 0.233 µM | 0.0521 µM | 1.69 µM | 0.0197 µM | 0.0748 µM | 0.0857 µM | 0.261 µM | 0.135 µM | 0.418 µM | 0.06 µM | 0.141 µM | 0.049 µM | 0.174 µM
2 | NC(=O)Cc1ccccc1Oc1nccc(-c2c(-c3ccc(F)cc3)ncn2C2CCNCC2)n1 | > 25 µM | > 25 µM | > 25 µM | > 25 µM | > 25 µM | > 25 µM | > 25 µM | > 25 µM | > 25 µM | > 25 µM | > 25 µM | > 25 µM | > 25 µM | > 25 µM | > 25 µM | > 25 µM | > 25 µM | > 25 µM | > 25 µM | > 25 µM
3 | CCN(CC)CC(O)CNc1ccc(NCC(O)CCl)c2c1C(=O)c1ccccc1C2=O (centres undefined) | – | 29.5 µM | – | 17 µM | – | 21.6 µM | – | 22.1 µM | – | 15.3 µM | – | 12.5 µM | – | 21.9 µM | – | 18.6 µM | – | 2.17 µM | – | 14.4 µM
4 | O=C1C(=O)c2ccccc2C=C1[N+](=O)[O-] | – | 56.8 µM | – | > 100 µM | – | > 100 µM | – | > 100 µM | – | 78.9 µM | – | > 100 µM | – | > 100 µM | – | 31.8 µM | – | > 100 µM | – | > 100 µM
5 | O=C1OCC2=C1C(c1ccccc1)c1cc3c(cc1N2CCO)CCC3 (centres undefined) | 1.16 µM | > 25 µM | 0.0793 µM | 0.922 µM | 0.0854 µM | 0.331 µM | 0.0677 µM | – | 0.0841 µM | > 25 µM | 0.09 µM | 3.51 µM | 0.0868 µM | > 25 µM | 0.0429 µM | 0.129 µM | 0.176 µM | > 25 µM | 0.0879 µM | > 25 µM
6 | CCOc1ccc(/C=N/Nc2cc(C)nc3ccc(Cl)cc23)cc1 | 2.18 µM | 5.25 µM | 1.89 µM | 3.65 µM | 1.91 µM | 3.47 µM | 1.76 µM | 3.24 µM | 1.67 µM | 3.32 µM | 2.06 µM | 4.27 µM | 1.78 µM | 3.2 µM | 1.75 µM | 3.26 µM | 1.73 µM | 3.14 µM | 1.97 µM | 4.02 µM
7 | CC(C)Cc1ccc(C(C)/C=C2\CCC(CN3CCOCC3)C2=O)cc1 (centres undefined) | – | 32.8 µM | – | 16.9 µM | – | 48.4 µM | – | 29.3 µM | – | 19.9 µM | – | 33.8 µM | – | 33.5 µM | – | 20.2 µM | – | 7.73 µM | – | 10.8 µM
8 | O=C(/C=C/c1ccccc1O)c1ccccc1 | 11 µM | 29.2 µM | 1.77 µM | 4.16 µM | 17.3 µM | 38 µM | 10.9 µM | 26.4 µM | 1.34 µM | 5.69 µM | 14.2 µM | 29 µM | 4.26 µM | 20.8 µM | 6.02 µM | 21.1 µM | 2.09 µM | 5.11 µM | 1.8 µM | 3.72 µM
